Measurements from patent US20240150290A1, “HETEROCYCLIC P2Y14 RECEPTOR ANTAGONISTS” (priority 2021, published 2024).

Key:
CYP2C19 = CYP2C19 (Homo sapiens, UniProt P33261); assay: CYP2C19 inhibition; assay type: in vitro ADME; conditions: Table 4
CYP3A4 = CYP3A4 (Homo sapiens, UniProt P08684); assay: CYP3A4 inhibition; assay type: in vitro ADME; conditions: Table 4
[1] = Microsomal stability, human; conditions: Table 4
[2] = system: CCI-induced mechano-allodynia; assay: Chronic constriction injury (CCI) mouse model of neuropathic pain; conditions: 10 μmol/kg, i.p., day 7 post-injury
CYP2C9 = CYP2C9 (Homo sapiens, UniProt P11712); assay: CYP2C9 inhibition; conditions: read-out: CYP2C9 (IC50); Table 4
Chain of CYP2C9 (P11712 whole entry): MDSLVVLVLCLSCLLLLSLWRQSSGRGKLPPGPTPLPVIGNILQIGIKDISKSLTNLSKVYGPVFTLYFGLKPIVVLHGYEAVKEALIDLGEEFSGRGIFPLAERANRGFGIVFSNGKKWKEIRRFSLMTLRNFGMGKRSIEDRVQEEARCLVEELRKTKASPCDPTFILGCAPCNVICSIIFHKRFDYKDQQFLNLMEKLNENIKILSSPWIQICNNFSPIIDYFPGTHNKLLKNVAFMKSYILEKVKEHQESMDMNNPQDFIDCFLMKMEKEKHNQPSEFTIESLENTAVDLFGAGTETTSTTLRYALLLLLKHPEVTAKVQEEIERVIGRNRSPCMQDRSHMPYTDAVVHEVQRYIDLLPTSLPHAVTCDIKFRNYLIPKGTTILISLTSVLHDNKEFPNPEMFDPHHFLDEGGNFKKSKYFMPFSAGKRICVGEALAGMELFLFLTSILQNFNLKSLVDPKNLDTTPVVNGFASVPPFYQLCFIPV

in vivo = conditions: Wistar, rat, iv, 0.5 mg/kg
[3] = Microsomal stability, rat; assay type: in vitro ADME; conditions: Table 4
[4] = Aqueous solubility, pION method; conditions: mean ± SD, Table 4
[5] = Stability in simulated intestinal fluid; conditions: Table 4
hERG ion channel = hERG ion channel (Homo sapiens, UniProt Q12809); assay: hERG ion channel block, patch clamp assay
Chain of hERG ion channel (Q12809 whole entry): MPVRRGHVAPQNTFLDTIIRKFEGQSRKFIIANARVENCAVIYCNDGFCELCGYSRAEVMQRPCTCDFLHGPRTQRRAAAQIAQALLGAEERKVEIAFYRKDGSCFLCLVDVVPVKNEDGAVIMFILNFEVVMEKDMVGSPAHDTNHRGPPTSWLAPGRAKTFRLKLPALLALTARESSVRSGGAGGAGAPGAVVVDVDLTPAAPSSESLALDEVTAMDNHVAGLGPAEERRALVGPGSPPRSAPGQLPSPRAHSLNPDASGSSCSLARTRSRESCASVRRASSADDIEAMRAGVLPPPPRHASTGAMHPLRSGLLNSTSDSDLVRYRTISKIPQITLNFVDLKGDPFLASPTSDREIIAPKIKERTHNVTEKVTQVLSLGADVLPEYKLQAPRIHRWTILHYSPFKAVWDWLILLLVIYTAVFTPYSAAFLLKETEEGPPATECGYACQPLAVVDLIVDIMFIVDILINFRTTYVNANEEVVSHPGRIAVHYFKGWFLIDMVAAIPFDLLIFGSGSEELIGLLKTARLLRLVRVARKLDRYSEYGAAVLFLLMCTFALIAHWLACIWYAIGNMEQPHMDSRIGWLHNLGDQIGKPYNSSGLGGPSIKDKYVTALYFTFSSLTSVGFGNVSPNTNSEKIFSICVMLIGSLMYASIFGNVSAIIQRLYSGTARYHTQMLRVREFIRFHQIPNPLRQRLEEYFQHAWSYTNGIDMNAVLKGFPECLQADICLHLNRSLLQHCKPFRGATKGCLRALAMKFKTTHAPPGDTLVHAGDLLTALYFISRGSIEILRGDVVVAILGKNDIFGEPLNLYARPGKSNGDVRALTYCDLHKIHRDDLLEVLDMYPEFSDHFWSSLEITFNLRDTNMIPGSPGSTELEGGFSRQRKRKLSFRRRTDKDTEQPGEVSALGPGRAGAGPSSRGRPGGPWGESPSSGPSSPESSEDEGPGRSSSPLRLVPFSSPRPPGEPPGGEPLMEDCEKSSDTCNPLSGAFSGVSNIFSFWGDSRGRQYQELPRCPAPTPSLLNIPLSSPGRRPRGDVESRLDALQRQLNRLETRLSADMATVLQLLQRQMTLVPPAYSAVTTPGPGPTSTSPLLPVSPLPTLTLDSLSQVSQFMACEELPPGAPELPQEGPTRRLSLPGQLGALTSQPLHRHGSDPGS

CYP1A2 = target: T1, CYP1A2 (Homo sapiens, UniProt P05177); assay: CYP1A2 inhibition; assay type: in vitro ADME; conditions: Table 4
T1 sequence (P05177 1-516): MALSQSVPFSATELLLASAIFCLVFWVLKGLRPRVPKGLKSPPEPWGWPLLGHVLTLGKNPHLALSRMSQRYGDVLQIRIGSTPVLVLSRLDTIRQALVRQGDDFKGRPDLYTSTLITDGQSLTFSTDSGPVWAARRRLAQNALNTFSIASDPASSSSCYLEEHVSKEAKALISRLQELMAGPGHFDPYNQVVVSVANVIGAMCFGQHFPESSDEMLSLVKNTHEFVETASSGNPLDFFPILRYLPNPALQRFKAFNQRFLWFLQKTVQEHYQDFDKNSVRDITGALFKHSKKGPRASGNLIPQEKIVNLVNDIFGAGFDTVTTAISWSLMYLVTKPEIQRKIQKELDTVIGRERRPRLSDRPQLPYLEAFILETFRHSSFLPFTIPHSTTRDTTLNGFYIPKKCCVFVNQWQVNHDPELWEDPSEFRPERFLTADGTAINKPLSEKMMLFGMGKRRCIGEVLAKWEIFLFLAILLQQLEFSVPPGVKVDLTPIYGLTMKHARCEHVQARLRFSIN

Plasma stability, rat = conditions: Table 4
hP2Y14R = target: T2, hP2Y14R (Homo sapiens, UniProt Q15391); assay: Inhibition of fluorescent antagonist binding in whole hP2Y14R-expressing CHO cells (flow cytometry); conditions: Table 2; tracer 2 (20 nM, 45 min), CHO cells; read-out: hP2Y14R, IC50
T2 construct: expressed in transfected cells; host or cells: CHO cells
T2 sequence (Q15391 1-338): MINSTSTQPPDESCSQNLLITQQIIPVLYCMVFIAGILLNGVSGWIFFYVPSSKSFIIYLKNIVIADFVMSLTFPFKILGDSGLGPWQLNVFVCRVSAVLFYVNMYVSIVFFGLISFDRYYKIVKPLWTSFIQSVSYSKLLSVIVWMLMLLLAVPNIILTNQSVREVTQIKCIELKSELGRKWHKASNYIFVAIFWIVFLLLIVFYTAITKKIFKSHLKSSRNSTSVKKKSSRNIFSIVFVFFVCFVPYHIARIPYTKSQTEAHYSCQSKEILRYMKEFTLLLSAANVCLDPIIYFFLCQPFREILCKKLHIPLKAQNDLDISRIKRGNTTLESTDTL

[6] = Pharmacokinetics in Wistar rats (i.v., i.p.)
[7] = Stability in simulated gastric fluid; conditions: Table 4
mP2Y14R = target: T3, mP2Y14R (Mus musculus, UniProt Q9ESG6); assay: cell-based
T3 sequence (Q9ESG6 1-338): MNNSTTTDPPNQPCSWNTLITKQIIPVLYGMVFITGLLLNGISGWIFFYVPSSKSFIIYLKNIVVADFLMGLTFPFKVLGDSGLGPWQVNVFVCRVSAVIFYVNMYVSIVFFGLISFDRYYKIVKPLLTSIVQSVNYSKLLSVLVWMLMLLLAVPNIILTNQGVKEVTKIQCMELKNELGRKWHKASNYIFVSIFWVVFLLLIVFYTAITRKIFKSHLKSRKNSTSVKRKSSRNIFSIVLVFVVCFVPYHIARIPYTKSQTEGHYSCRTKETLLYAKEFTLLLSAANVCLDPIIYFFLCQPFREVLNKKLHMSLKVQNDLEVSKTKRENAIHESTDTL
Excerpt: Desirably, receptor affinity is maintained across species, facilitating performance in in vivo preclinical testing in small animals, with the mouse being the most commonly used species in initial evaluation.

CYP2D6 = CYP2D6 (Homo sapiens, UniProt P10635); assay: CYP2D6 inhibition; assay type: in vitro ADME; conditions: Table 4
Chain of CYP2D6 (P10635 whole entry): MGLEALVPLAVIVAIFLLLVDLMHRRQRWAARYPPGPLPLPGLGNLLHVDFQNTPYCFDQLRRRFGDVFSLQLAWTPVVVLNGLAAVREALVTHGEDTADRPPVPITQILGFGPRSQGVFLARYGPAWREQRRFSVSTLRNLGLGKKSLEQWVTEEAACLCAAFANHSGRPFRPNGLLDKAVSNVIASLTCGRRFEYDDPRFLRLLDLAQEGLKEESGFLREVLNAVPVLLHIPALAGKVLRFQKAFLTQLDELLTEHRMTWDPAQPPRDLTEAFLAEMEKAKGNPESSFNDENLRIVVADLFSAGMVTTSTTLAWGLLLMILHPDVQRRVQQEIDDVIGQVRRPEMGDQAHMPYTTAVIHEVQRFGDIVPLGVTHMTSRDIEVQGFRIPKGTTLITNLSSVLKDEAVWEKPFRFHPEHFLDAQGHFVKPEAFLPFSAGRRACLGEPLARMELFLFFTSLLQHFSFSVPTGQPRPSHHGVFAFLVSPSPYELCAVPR

Plasma stability, mouse = conditions: Table 4
[8] = Microsomal stability, mouse; assay type: in vitro ADME; conditions: Table 4

Chain of CYP2C19 (P33261 whole entry): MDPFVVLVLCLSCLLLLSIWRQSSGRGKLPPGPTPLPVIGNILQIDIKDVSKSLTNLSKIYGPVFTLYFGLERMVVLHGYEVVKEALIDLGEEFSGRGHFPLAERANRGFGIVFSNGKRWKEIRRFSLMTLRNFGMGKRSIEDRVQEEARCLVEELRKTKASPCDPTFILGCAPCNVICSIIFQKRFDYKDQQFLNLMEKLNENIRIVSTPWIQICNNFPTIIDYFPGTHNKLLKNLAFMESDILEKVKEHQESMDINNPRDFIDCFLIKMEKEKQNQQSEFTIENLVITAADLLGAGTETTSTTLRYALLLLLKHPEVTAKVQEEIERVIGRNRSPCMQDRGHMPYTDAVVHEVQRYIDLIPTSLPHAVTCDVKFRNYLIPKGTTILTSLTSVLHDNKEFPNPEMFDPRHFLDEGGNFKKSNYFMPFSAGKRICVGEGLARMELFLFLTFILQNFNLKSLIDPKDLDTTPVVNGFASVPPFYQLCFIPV
Chain of CYP3A4 (P08684 whole entry): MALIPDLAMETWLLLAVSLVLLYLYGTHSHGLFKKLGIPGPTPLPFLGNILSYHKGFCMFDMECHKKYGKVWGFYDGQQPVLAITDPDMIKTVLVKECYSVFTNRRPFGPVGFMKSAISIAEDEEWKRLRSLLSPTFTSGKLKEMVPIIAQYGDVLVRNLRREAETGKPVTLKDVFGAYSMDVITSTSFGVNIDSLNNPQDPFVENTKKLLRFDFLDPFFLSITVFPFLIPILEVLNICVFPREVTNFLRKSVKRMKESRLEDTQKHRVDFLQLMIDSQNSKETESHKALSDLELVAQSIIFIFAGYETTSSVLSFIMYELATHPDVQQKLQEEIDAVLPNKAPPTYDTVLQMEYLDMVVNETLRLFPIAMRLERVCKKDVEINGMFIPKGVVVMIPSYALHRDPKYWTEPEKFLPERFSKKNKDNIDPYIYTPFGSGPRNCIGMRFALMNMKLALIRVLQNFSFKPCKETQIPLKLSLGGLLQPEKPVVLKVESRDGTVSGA

## O=C(O)c1cc(-c2ccc(-c3cc(CO)on3)cc2)c2ccc(-c3ccc(C(F)(F)F)cc3)cc2c1 [Compound 32, 4-(4-(5-(Hydroxymethyl)isoxazol-3-yl)phenyl)-7-(4-(trifluoromethyl)phenyl)-2-naphthoic acid]
CYP2C19
  IC50: > 30 µM
CYP3A4
  IC50: > 30 µM
[1]
  Microsomal stability (t1/2, min): > 240 min
[2]
  reversal of mechano-allodynia (figure legend): reversal of CCI-induced mechano-allodynia
CYP2C9
  IC50: 10.4 µM
In vivo
  bioavailability: 100%
[3]
  Microsomal stability (t1/2, min): 47.7 min
[4]; pH 4.0
  aqueous solubility (pH 4.0, μg/mL): 0.14 ± 0.02 μg/mL
[4]; pH 7.4
  aqueous solubility (pH 7.4, μg/mL): 7.63 ± 1.93 μg/mL
[5]
  Simulated intestinal fluid (t1/2, min): >240 min
hERG ion channel
  IC50: > 30 µM
CYP1A2
  IC50: > 30 µM
Plasma stability, rat
  Plasma stability (t1/2, min): TBD (h); >240 (r); min
hP2Y14R
  IC50: 0.015 ± 0.0044 µM
[6]; i.v. administration in rat, 0.5 mg/kg, Table 4
  t1/2: 0.689 h
[6]; rat, i.p., 1.0 mg/kg
  AUC0-last: 650 ng·h/mL
  AUC0-∞: 700 ng·h/mL
  Cl: 23.83 mL/min/kg
  Cmax: 88.4 ng/mL
  F (%): 139%
  Kel: 0.096 h⁻¹
  T1/2: 7.23 h
  Vd (mL/kg): 14,900 mL/kg
[6]; rat, i.p., 3.0 mg/kg
  AUC0-last: 2060 ng·h/mL
  AUC0-∞: 2120 ng·h/mL
  Cl: 23.67 mL/min/kg
  Cmax: 315 ng/mL
  F (%): 147%
  Kel: 0.148 h⁻¹
  T1/2: 4.68 h
  Vd: 9.57 L/kg
[6]; rat, i.p., 10 mg/kg
  AUC0-last: 4900 ng·h/mL
  AUC0-∞: 4920 ng·h/mL
  Cl: 33.83 mL/min/kg
  Cmax: 786 ng/mL
  F (%): 105%
  Kel: 0.233 h⁻¹
  T1/2: 2.98 h
  Vd: 8.73 L/kg
[6]; rat, i.v., 0.5 mg/kg
  AUC0-last: 234 ng·h/mL
  AUC0-∞: 238 ng·h/mL
  Cl: 35.17 mL/min/kg
  Cmax: 359 ng/mL
  Kel: 1.01 h⁻¹
  T1/2: 0.689 h
  Vd: 2.09 L/kg
[7]
  Simulated gastric fluid (t1/2, min): 161 min
mP2Y14R; comparison of species, in words
  affinity at the mP2Y14R vs the human homologue: nearly the same affinity in the two species
mP2Y14R; read-out: mP2Y14R, IC50, Table 2, tracer 2 (20 nM, 45 min), HEK293 cells
  IC50: 0.0186 ± 0.0084 µM
CYP2D6
  IC50: > 30 µM
Plasma stability, mouse
  Plasma stability (t1/2, min): >240 (m) min
[8]
  Microsomal stability (t1/2, min): >240 (m) min
